Data from US5916904A, “Antimicrobial agent” (Eisai Co., Ltd., priority 1992, dated 1999).
In brackets after ≈: the same amount, converted by molar mass.

Legend:
[1] = tested on: C. pylori NCTC-11916, NCTC-11637, PCL-56, CPY-0011-1, KS-13, CLO-1 and CLO-6; conditions: standard strains and clinical isolates; JP-A 3-173817; cited from earlier work
C. pylori EI-925 = experiment: MIC by agar dilution method, C. pylori clinical isolate EI-925; assay type: cell-based; conditions: Helicobacter pylori, EI925, 72 h; EI-925, clinical isolate; in vitro, 37° C., pH 7.0, 3 days, microaerophilic; read-out: antibiotic activity (MIC)
C. pylori NCTC11637 = experiment: MIC by agar dilution method, C. pylori standard strain NCTC11637; assay type: cell-based; conditions: Helicobacter pylori, 72 h, in vitro, 37° C., pH 7.0, 3 days, microaerophilic, read-out: antibiotic activity (MIC)
C. pylori EI-36 = experiment: MIC by agar dilution method, C. pylori clinical isolate EI-36; assay type: cell-based; conditions: Helicobacter pylori, EI36, 72 h; EI-36, clinical isolate; in vitro, 37° C., pH 7.0, 3 days, microaerophilic; read-out: antibiotic activity (MIC)
C. pylori EI-393 = experiment: MIC by agar dilution method, C. pylori clinical isolate EI-393; assay type: cell-based; conditions: Helicobacter pylori, EI393, 72 h; EI-393, clinical isolate; in vitro, 37° C., pH 7.0, 3 days, microaerophilic; read-out: antibiotic activity (MIC)
C. pylori EI-930 = experiment: MIC by agar dilution method, C. pylori clinical isolate EI-930; assay type: cell-based; conditions: Helicobacter pylori, EI930, 72 h; EI-930, clinical isolate; in vitro, 37° C., pH 7.0, 3 days, microaerophilic; read-out: antibiotic activity (MIC)
C. pylori EI-391 = experiment: MIC by agar dilution method, C. pylori clinical isolate EI-391; assay type: cell-based; conditions: Helicobacter pylori, EI391, 72 h; EI-391, clinical isolate (resistant); in vitro, 37° C., pH 7.0, 3 days, microaerophilic; read-out: antibiotic activity (MIC)
C. pylori EI-5 = experiment: MIC by agar dilution method, C. pylori clinical isolate EI-5; assay type: cell-based; conditions: Helicobacter pylori, EI5, 72 h; EI-5, clinical isolate; in vitro, 37° C., pH 7.0, 3 days, microaerophilic; read-out: antibiotic activity (MIC)
C. pylori EI-46 = experiment: MIC by agar dilution method, C. pylori clinical isolate EI-46; assay type: cell-based; conditions: Helicobacter pylori, EI46, 72 h; EI-46, clinical isolate (resistant); in vitro, 37° C., pH 7.0, 3 days, microaerophilic; read-out: antibiotic activity (MIC)
C. pylori EI-2 = experiment: MIC by agar dilution method, C. pylori clinical isolate EI-2; assay type: cell-based; conditions: Helicobacter pylori, EI2, 72 h; EI-2, clinical isolate; in vitro, 37° C., pH 7.0, 3 days, microaerophilic; read-out: antibiotic activity (MIC)
C. pylori EI-612 = experiment: MIC by agar dilution method, C. pylori clinical isolate EI-612; assay type: cell-based; conditions: Helicobacter pylori, EI612, 72 h; EI-612, clinical isolate; in vitro, 37° C., pH 7.0, 3 days, microaerophilic; read-out: antibiotic activity (MIC)
C. pylori NCTC11916 = experiment: MIC by agar dilution method, C. pylori standard strain NCTC11916; assay type: cell-based; conditions: Helicobacter pylori, 72 h, in vitro, 37° C., pH 7.0, 3 days, microaerophilic, read-out: antibiotic activity (MIC)
C. pylori EI-397 = experiment: MIC by agar dilution method, C. pylori clinical isolate EI-397; assay type: cell-based; conditions: Helicobacter pylori, EI397, 72 h; EI-397, clinical isolate; in vitro, 37° C., pH 7.0, 3 days, microaerophilic; read-out: antibiotic activity (MIC)
C. pylori EI-467 = experiment: MIC by agar dilution method, C. pylori clinical isolate EI-467; assay type: cell-based; conditions: Helicobacter pylori, EI467, 72 h; EI-467, clinical isolate; in vitro, 37° C., pH 7.0, 3 days, microaerophilic; read-out: antibiotic activity (MIC)
C. pylori EI-933 = experiment: MIC by agar dilution method, C. pylori clinical isolate EI-933; assay type: cell-based; conditions: Helicobacter pylori, EI933, 72 h; EI-933, clinical isolate; in vitro, 37° C., pH 7.0, 3 days, microaerophilic; read-out: antibiotic activity (MIC)
C. pylori EI-429 = experiment: MIC by agar dilution method, C. pylori clinical isolate EI-429; assay type: cell-based; conditions: Helicobacter pylori, EI429, 72 h; EI-429, clinical isolate; in vitro, 37° C., pH 7.0, 3 days, microaerophilic; read-out: antibiotic activity (MIC)
C. pylori = conditions: JP-A 2-209809 and JP-A 3-173817; cited from earlier work
C. pylori 8005 = conditions: C. pylori 8005, clinical isolate; JP-A 2-209809; cited from earlier work

Row | Compound | antibiotic activity [1] | MIC (C. pylori EI-925) | MIC (C. pylori NCTC11637) | MIC (C. pylori EI-36) | MIC (C. pylori EI-393) | MIC (C. pylori EI-930) | MIC (C. pylori EI-391) | MIC (C. pylori EI-5) | MIC (C. pylori EI-46) | MIC (C. pylori EI-2) | MIC (C. pylori EI-612) | MIC (C. pylori NCTC11916) | MIC (C. pylori EI-397) | MIC (C. pylori EI-467) | MIC (C. pylori EI-933) | MIC (C. pylori EI-429) | antibiotic activity (C. pylori) | antibiotic activity (C. pylori 8005)
1 | Cc1c(OCC(F)(F)C(F)(F)C(F)F)ccnc1CSc1nc2ccccc2[nH]1 [JP-A 3-173817 compound (14), 2-[{3-Methyl-4-(2,2,3,3,4,4-hexafluorobutoxy)pyrid-2-yl}methylthio]-1H-benzimidazole] | activity against all the tested strains | – | – | – | – | – | – | – | – | – | – | – | – | – | – | – | – | –
2 | CC1COc2c(N3CCN(C)CC3)c(F)cc3c(=O)c(C(=O)O)cn1c23 (centres unmarked) [(VIII), ofloxacin] | – | 0.4 mg/L (≈ 1.11 µM) | 0.8 mg/L (≈ 2.21 µM) | 0.8 mg/L (≈ 2.21 µM) | 0.8 mg/L (≈ 2.21 µM) | 0.8 mg/L (≈ 2.21 µM) | 25 mg/L (≈ 69.2 µM) | 0.8 mg/L (≈ 2.21 µM) | 3.13 mg/L (≈ 8.66 µM) | 0.8 mg/L (≈ 2.21 µM) | 0.8 mg/L (≈ 2.21 µM) | 0.8 mg/L (≈ 2.21 µM) | 0.8 mg/L (≈ 2.21 µM) | 0.4 mg/L (≈ 1.11 µM) | 0.4 mg/L (≈ 1.11 µM) | 0.8 mg/L (≈ 2.21 µM) | – | –
3 | Cc1c(OCC(F)(F)C(F)(F)F)ccnc1CSc1nc2ccccc2[nH]1 [JP-A 3-173817 compound (13), 2-[{3-Methyl-4-(2,2,3,3,3-pentafluoropropoxy)pyrid-2-yl}methylthio]-1H-benzimidazole] | activity against all the tested strains | – | – | – | – | – | – | – | – | – | – | – | – | – | – | – | – | –
4 | COc1ccc2[nH]c([S+]([O-])Cc3ncc(C)c(OC)c3C)nc2c1 (centres unmarked) [(III), 5-Methoxy-2-[{(4-methoxy-3,5-dimethyl-2-pyridinyl)methyl}sulfinyl]-1H-benzimidazole] | – | 25 mg/L (≈ 72.4 µM) | 50 mg/L (≈ 145 µM) | 25 mg/L (≈ 72.4 µM) | 50 mg/L (≈ 145 µM) | 25 mg/L (≈ 72.4 µM) | 50 mg/L (≈ 145 µM) | 50 mg/L (≈ 145 µM) | 25 mg/L (≈ 72.4 µM) | 25 mg/L (≈ 72.4 µM) | 25 mg/L (≈ 72.4 µM) | 25 mg/L (≈ 72.4 µM) | 50 mg/L (≈ 145 µM) | 50 mg/L (≈ 145 µM) | 25 mg/L (≈ 72.4 µM) | 25 mg/L (≈ 72.4 µM) | lacks sufficient antibiotic activity | has antibiotic activity against C. pylori 8005
5 | Cc1c(OCC(F)(F)C(F)F)ccnc1CSc1nc2ccccc2[nH]1 [JP-A 3-173817 compound (12), 2-[{3-Methyl-4-(2,2,3,3-tetrafluoropropoxy)pyrid-2-yl}methylthio]-1H-benzimidazole] | activity against all the tested strains | – | – | – | – | – | – | – | – | – | – | – | – | – | – | – | – | –
